From patent publication US12064407B2 (priority 2017, dated 2024)
Like-named read-outs stand apart in the source and are kept apart here.

Tests used:
CTXLP = assay: Endogenous CTXLP in SVGA astrocytes treated with gambogic acid; format: cell-based, human; conditions: SVGA cells, gambogic acid 0.25 and 0.5 μM
Procedure: FIG. 57 depicts that endogenous levels of CTXLP in human astrocytes can be depleted in the presence of gambogic acid. Human astrocytic cell line SVGA were treated with increasing doses of gambogic acid in the low micromolar range (0.25 and 0.5 μM).

NOGO-A [1] = conditions: ReNcell CX neurospheres, 24 hours, 1 ng/ml TNFα; for TNFα-induced NOGO-A expression in human neurospheres: 0.5 μM GA
Procedure: (§1) The ReNcell CX neuroprogenitor cell line was grown in suspension to produce human neurospheres (approximately 0.5 mm diameter). Neurospheres were treated for 24 hours in neurobasal media alone, or with or without 1 ng/ml TNFα and/or 0.5 μM gambogic acid (GA). Cells were collected, protein extracted, and western blot performed to measure the expression of soluble (standard lysis) and insoluble (RIPA lysis) proteins for ERVK CTXLP, CaV2.2 C-terminal calcium channel-associated transcriptional regulator (CaV2.2 CCAT) and NOGO-A, as compared to β-actin loading control.

NOGO-A [2] = conditions: 24 hours, GA 0.1, 0.25, 1 and 2.5 μM
Procedure: The ERVK-expressing NCCIT teratocarcinoma cell line was grown in a monolayer in RMPI 1640 media supplemented with FetalGro. Cells were treated for 24 hours with increasing doses of gambogic acid (GA, 0.1, 0.25, 1 and 2.5 μM). Cells were collected, protein extracted, and western blot performed to measure the expression of ERVK CTXLP, CaV2.2 C-terminal calcium channel-associated transcriptional regulator (CaV2.2 CCAT) and NOGO-A, as compared to β-actin loading control.

ERVK CTXLP [3] = conditions: ReNcell CX neurospheres, 24 hours, 1 ng/ml TNFα; for TNFα-induced CTXLP expression in human neurospheres: 0.5 μM GA
Procedure: as §1

CaV1.2 CCAT = conditions: 2.5 mM EGTA; 65 mM KCI; 100 μM glutamate; cited from earlier work
[4] = system: interferon response elements (ISREs) within the ERVK promoter (5′ LTR); format: binding, human
ERVK CTXLP [5] = conditions: ReNcell-derived neurons, 24 hours, n=1
Procedure: ReNcell-derived neurons were treated with increasing doses of pro-inflammatory cytokines TNFα or LIGHT for 24 hours.

IRF7 = format: cell-based
NF-κB p65 [6] = format: cell-based
[7] = system: NF-κB p65 and p50 proteins; format: cell-based, human
NF-κB p65 [8] = format: cell-based; remark: listed apart in the source
[9] = system: CaV2.2 calcium channel-associated transcription regulator (CCAT); format: cell-based, human
NOGO-A [10] = target: T1, NOGO-A (Homo sapiens, UniProt Q9NQC3); conditions: patients with ALS, intravenous infusions; cited from earlier work
T1 construct: host or cells: ALS patients (clinical trials cited from the literature)
T1 sequence (Q9NQC3 1-1192): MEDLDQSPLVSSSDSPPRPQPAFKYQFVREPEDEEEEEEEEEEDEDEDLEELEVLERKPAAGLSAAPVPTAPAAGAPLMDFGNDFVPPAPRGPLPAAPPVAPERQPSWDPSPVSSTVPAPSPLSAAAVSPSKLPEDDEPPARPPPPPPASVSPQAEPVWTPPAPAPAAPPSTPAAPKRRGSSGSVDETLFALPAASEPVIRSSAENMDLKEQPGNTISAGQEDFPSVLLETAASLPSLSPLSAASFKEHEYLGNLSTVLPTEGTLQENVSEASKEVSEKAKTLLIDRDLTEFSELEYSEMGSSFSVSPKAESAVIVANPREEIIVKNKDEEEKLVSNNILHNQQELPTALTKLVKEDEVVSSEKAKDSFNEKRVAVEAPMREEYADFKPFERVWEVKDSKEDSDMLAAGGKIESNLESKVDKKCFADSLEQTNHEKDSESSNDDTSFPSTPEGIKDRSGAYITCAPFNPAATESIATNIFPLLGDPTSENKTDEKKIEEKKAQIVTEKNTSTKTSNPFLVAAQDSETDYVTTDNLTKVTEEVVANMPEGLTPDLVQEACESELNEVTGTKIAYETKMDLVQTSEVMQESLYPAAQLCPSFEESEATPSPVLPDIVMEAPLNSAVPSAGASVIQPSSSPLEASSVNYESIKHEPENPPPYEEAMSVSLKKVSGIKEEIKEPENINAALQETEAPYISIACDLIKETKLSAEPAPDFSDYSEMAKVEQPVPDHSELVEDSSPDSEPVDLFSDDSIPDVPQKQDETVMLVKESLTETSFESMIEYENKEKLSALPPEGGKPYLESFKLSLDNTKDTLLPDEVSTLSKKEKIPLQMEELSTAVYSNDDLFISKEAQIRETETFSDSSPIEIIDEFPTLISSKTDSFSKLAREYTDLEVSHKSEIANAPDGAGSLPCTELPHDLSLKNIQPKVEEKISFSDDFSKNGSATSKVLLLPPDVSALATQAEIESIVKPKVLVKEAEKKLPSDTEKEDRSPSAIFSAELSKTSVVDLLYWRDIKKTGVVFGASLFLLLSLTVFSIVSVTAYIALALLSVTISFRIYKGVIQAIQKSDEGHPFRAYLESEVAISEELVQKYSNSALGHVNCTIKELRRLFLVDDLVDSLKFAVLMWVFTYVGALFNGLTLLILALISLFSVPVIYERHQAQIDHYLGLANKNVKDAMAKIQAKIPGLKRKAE

Molecule: CC(C)=CCC[C@]1(C)C=Cc2c(O)c3c(c(CC=C(C)C)c2O1)O[C@]12C(=C[C@@H]4C[C@H]1C(C)(C)O[C@@]2(C/C=C(/C)C(=O)O)C4=O)C3=O [Gambogic acid, gambogic acid]
- endogenous levels of CTXLP in human astrocytes (CTXLP): depleted
- TNFα-induced NOGO-A expression in human neurospheres (NOGO-A [1]; listed as GA): blocked
- TNFα-induced NOGO-A expression in human neurospheres (NOGO-A [1]; listed as gambogic acid): ameliorate
- NOGO-A expression in NCCIT cells (NOGO-A [2]): potent inhibitor of Nogo-A
- NOGO-A expression in NCCIT cells (NOGO-A [2]; listed as GA): dose-dependently reduces
- TNFα-induced CTXLP expression in human neurospheres (ERVK CTXLP [3]): blocks
- TNFα-induced CTXLP expression in human neurospheres (ERVK CTXLP [3]; listed as gambogic acid): reduce inducible CTXLP expression

Molecule: N[C@@H](CCC(=O)O)C(=O)O [glutamate]
- CaV1.2 CCAT nuclear localization / nuclear CCAT levels in neurons (CaV1.2 CCAT): decreased nuclear CCAT levels

Molecule: [Cl-].[K+] [KCI]
- CaV1.2 CCAT nuclear localization / nuclear CCAT levels in neurons (CaV1.2 CCAT): decreased nuclear CCAT levels

Molecule: O=C(O)CN(CCOCCOCCN(CC(=O)O)CC(=O)O)CC(=O)O [EGTA]
- CaV1.2 CCAT nuclear localization / nuclear CCAT levels in neurons (CaV1.2 CCAT): promote

Molecule: TNFα
- NOGO-A expression in neurospheres on TNFα (NOGO-A [1]): enhances
- CTXLP chromatin binding on cytokine stimulation [4]: Notable increase
- CTXLP expression in neurospheres on TNFα (ERVK CTXLP [3]): enhances
- cytokine dose giving optimal enhancement of CTXLP expression (90 kDa form) (ERVK CTXLP [5]): 1 ng/mL

Molecule: [Ca+2].[Cl-].[Cl-] [calcium chloride]
- caspase-3 expression in CTXLP-treated SVGA cells in the presence of excess calcium (SVGA cells): blocked

B1: ERVK SU: ERVK envelope surface unit protein devoid of the CTXLP domain (SEQ ID NO: 3) (protein)
chain: MNPSEMQRKAPPRRRRHRNRAPLTHKMNKMVTSEEQMKLPSTKKAEPPTWAQLKKLTQLATKYLENTKVTQTPESMLLAALMIVSMVVSLPMPAGAAAANYTYWAYVPFPPLIRAVTWMDNPIEIYVNDSVWVPGPTDDCCPAKPEEEGMMINISIGYRYPPICLGRAPGCLMPAVQNWLVEVPTVSPISRFTYHMVSGMSLRPRVNYLQDFSYQRSLKFRPKGKPCPKEIPKESKNTEVLVWEECVANSAVILQNNEFGTLIDWAPRGQFYHNCSGQTQSCPSAQVSPAVDSDLTESLDKHKHKKLQSFYPWEWGEKGISTARPKIISPVSGPEHPELWRLTVASHHIRIWSGNQTLETRDRKPFYTIDLNSSLTVPLQSCVKPPYMLVVGNIVIKPDSQTITCENCRLLTCIDSTFNWQHRILLVRAREGVWIPVSMDRPWEASPSVHILTEVLKGVLNRSKR
modifications: Endogenous retrovirus K (from homo sapiens)
- continued replication / cell density at later time points (SVGA cells): able to continue to replicate
- mRNA expression of IRF7 (IRF7): neither protein was able to trigger an upregulation
- mRNA expression of NF-κB p65 (NF-κB p65 [6]): marked increase
- NF-κB p65 and p50 protein expression [7]: not
- NF-κB p65 protein expression (NF-κB p65 [8]): unable
- CaV2.2 CCAT (75 kDa) expression in SVGA cells [9]: not

B2: LIGHT: lymphotoxin-like inducible member of the TNF superfamily protein, pro-inflammatory cytokine (protein, UniProt O43557 83-240, looked up)
Tumor necrosis factor ligand …: LIQERRSHEVNPAAHLTGANSSLTGSGGPLLWETQLGLAFLRGLSYHDGALVVTKAGYYYIYSKVQLGGVGCPLGLASTITHGLYKRTPRYPEELELLVSQQSPCGRATSSSRVWWDSSFLGGVVHLEAGEKVVVRVLDERLVRLRDGTRSYFGAFMV
- cytokine dose giving optimal enhancement of CTXLP expression (90 kDa form) (ERVK CTXLP [5]): 10 ng/mL

B3: Ozanezumab: human anti-Nogo-A antibody from GlaxoSmithKline (antibody, chains of the INN, looked up, V domains shown)
VH: QVQLVQSGAEVKKPGASVKVSCKASGYTFTSYWMHWVRQAPGQGLEWIGNINPSNGGTNYNEKFKSKATMTRDTSTSTAYMELSSLRSEDTAVYYCELMQGYWGQGTLVTVSS
VL: DIVMTQSPLSNPVTLGQPVSISCRSSKSLLYKDGKTYLNWFLQRPGQSPQLLIYLMSTRASGVPDRFSGGGSGTDFTLKISRVEAEDVGVYYCQQLVEYPLTFGQGTKLEIK
- outcome of Phase II clinical ALS trials (NOGO-A [10]): negative results
